Where two headings read alike, the source gives them in different places.
Tests used:
[1] = molecular target: T1, menin (Homo sapiens, UniProt O00255, T541A); assay: Menin/MLL homogenous time-resolved fluorescence (HTRF) assay; format: binding
T1 construct: Menin (a.a. 1-610-6×his tag)
T1 sequence (O00255 with tags, fused parts or gaps T541A): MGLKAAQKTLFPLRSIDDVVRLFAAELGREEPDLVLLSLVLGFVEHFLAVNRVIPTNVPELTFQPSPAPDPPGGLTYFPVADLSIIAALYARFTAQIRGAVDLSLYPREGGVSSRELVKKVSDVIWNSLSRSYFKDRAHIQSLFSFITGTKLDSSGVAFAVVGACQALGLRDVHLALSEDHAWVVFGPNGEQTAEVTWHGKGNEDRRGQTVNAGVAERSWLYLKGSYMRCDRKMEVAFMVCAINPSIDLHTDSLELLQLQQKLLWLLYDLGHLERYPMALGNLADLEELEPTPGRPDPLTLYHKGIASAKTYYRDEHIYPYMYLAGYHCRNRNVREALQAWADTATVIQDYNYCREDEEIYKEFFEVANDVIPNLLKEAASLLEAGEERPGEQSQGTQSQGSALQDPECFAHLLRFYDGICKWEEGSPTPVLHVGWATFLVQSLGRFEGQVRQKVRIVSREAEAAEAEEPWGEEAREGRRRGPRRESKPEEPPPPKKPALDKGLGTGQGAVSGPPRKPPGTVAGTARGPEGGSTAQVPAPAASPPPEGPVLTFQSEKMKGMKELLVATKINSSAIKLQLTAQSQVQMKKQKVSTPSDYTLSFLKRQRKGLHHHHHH
Outline: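 Displacement of 75 nM FITC-MBM1 from terbium-cryptate-labeled His-tagged menin 1-610 ([…]) was read as the 520/490 nm HTRF ratio. Compound (11-point, 3-fold series) got 5 min with menin before peptide, then 15 min at ambient; 0.5% DMSO, Tris pH 7.5.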

[2] = tested on: MV-4-11; assay: Proliferation assay A (spheroid assay) MV-4-11; format: cell-based, human; details: MV-4-11 cells, 8 d, AUC of confluence against time, absolute IC50, read-out: (3a) Spheroid assay MV-4-11 (IC50(μM)) Assay A
Outline: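 Spheroid growth in ultra-low-attachment round-bottom wells (1,500 MV-4-11, 300 MOLM14 or 750 K562 cells), compound titration at 0.3% DMSO, 8 d at 37° C. Confluence imaged every 4 h; AUC from t=0 baseline expressed as % of DMSO control and fitted for absolute IC50.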

[3] = tested on: MOLM14; assay: Proliferation assay A (spheroid assay) MOLM14; format: cell-based, human; details: MOLM14 cells, 8 d, AUC of confluence against time, absolute IC50, read-out: (3a) Spheroid assay MOLM14 (IC50(μM)) Assay A
Description: 3a) Proliferation Assay A
The anti-proliferative effect of menin/MLL protein/protein interaction inhibitor test compounds was assessed in human leukemia cell lines. The cell lines MV-4-11 and MOLM14 harbor MILL translocations and express the MILL fusion proteins MLL-AF4 and MLL-AF9, respectively, as well as the wildtype protein from the second allele. […] K562 was used as a control cell line containing two MLL wildtype alleles in order to exclude compounds that display general cytotoxic effects.
MV-4-11 and MOLM14 were cultured in RPMI-1640 (Sigma Aldrich) supplemented with 10% fetal bovine serum (HyClone), 2 mM L-glutamine (Sigma Aldrich) and 50 μg/ml gentamycin (Gibco). K562 were propagated in RPMI-1640 (Sigma Aldrich) supplemented with 20% fetal bovine serum (HyClone), 2 mM L-glutamine (Sigma Aldrich) and 50 μg/ml gentamycin (Gibco).
In order to assess the anti-proliferative effects, 1,500 MV-4-11, 300 MOLM14 or 750 K562 cells were seeded in 200 μl media per well in 96-well round bottom, ultra-low attachment plates (Costar, catalogue number 7007). Cell seeding numbers were chosen based on growth curves to ensure linear growth throughout the experiment. Test compounds were added at different concentrations and the DMSO content was normalized to 0.3%. Cells were incubated for 8 d at 37° C. and 5% CO2. Spheroid like growth was monitored in real-time by live-cell imaging (IncuCyteZOOM, Essenbio, 4× objective) acquiring one image every four hours for 8 d. Confluence (%) as a measure of spheroid size was determined using an integrated analysis tool.
In order to determine the cumulative effect of the test compounds over time, the area under the curve (AUC) in a plot of confluence against time was calculated. Confluence at the beginning of the experiment (t=0) was used as baseline for the AUC calculation.
Absolute IC50 values were calculated according to the following procedure: % Control=(AUC sample/AUC control)*100
AUC control mean AUC of control values (cells without compound/DMSO as vehicle control)
A non-linear curve fit was applied using the least squares (ordinary) fit method to the plot of % control versus compound concentration. Based on this, the absolute IC50 value (half maximal inhibitory concentration of the test compound causing an anti-proliferative effect of 50% relative to the vehicle control) was calculated.

[4] = tested on: MOLM14; assay: Proliferation assay B (spheroid assay) MOLM14; format: cell-based, human; details: Homo sapiens, MOLM-14, 192 h, MOLM14 cells, confluence at day 8, absolute IC50; read-out: (3b) Spheroid assay MOLM14 (IC50(μM)) Assay B
Outline: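 IC50 derived from % effect on day-8 imaged confluence, scaled between DMSO-treated cells (high) and 1 μM staurosporine (low), using a variable-slope fit constrained 0-100%. Cells seeded as spheroids in ultra-low-attachment plates and exposed to compound for 8 days, 0.3% DMSO.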

[5] = location 1, read-out: (2) location 1 Menin HTRF assay (IC50 (nM))
[6] = location 2, read-out: (2) location 2 Menin HTRF assay (IC50 (nM))

SMILES	IC50 [1, 5]	IC50 [1, 6]	IC50 ([2]; Homo sapiens, MV4-11, 192 h)	IC50 ([3]; Homo sapiens, MOLM-14, 192 h)	IC50 [2]	IC50 [3]	IC50 [4]
FC(F)(F)Cc1cc2c(N3CC[C@@]4(CC[C@@H](NCc5ccccc5)C4)C3)ncnc2s1 (single isomer, unassigned) [Compound 3]	75.7 nM	10 nM	0.75 µM	2.39 µM	–	–	–
FC(F)(F)Cc1cc2c(N3CCC4(CCC(Nc5ccccc5)C4)C3)ncnc2s1 (single isomer, unassigned) [Compound 33]	–	2050 nM	5.11 µM	4.45 µM	–	–	–
O=c1[nH]c2ccc(CNC3CCC4(C3)CN(c3ncnc5sc(CC(F)(F)F)cc35)C4)cc2o1 (single isomer, unassigned) [Compound 55]	–	7 nM	0.28 µM	1.27 µM	–	–	–
O=c1[nH]c2cc(CNC3CCC4(C3)CN(c3ncnc5sc(CC(F)(F)F)cc35)C4)ccc2o1 (single isomer, unassigned) [Compound 57]	–	3.6 nM	–	–	0.09 µM	0.44 µM	–
COc1nc(N2CCC3(CC(NCc4ccccc4)C3)C2)c2cc(CC(F)(F)F)sc2n1 (single isomer, unassigned) [Compound 60]	–	23.2 nM	3.2 µM	3.46 µM	–	–	–
CNC(=O)c1ccc(NC2CCC3(C2)CN(c2ncnc4sc(CC(F)(F)F)cc24)C3)cc1 (single isomer, unassigned) [Compound 98]	–	2.6 nM	0.25 µM	1.3 µM	–	–	1.36 µM
O=c1[nH]c2ccc(CNC3CCC4(C3)CN(c3ncnc5sc(CC(F)(F)F)cc35)C4)cc2[nH]1 (single isomer, unassigned) [Compound 108]	–	5.2 nM	–	> 3.75 µM	0.53 µM	–	–
FC(F)(F)Cc1cc2c(N3CCC4(CC(Nc5ccccc5)C4)C3)ncnc2s1 (single isomer, unassigned) [Compound 149]	–	37.5 nM	3.67 µM	> 3.75 µM	–	–	–
N#CC1(c2ccc(NC3CC4(CCN(c5ncnc6sc(CC(F)(F)F)cc56)C4)C3)cc2)CC1 (single isomer, unassigned) [Compound 172]	–	8.4 nM	0.9 µM	3.05 µM	–	–	–
CC(C)(N[C@H]1CCC2(C1)CN(c1ncnc3sc(CC(F)(F)F)cc13)C2)c1ccccc1 (single isomer, unassigned) [Compound 281]	–	62.7 nM	1.11 µM	1.78 µM	–	–	–
N#CCc1ccc(NC2CC3(CCN(c4ncnc5sc(CC(F)(F)F)cc45)C3)C2)cc1 (single isomer, unassigned) [Compound 306]	–	78.2 nM	–	3.82 µM	2.25 µM	–	–
Nc1nc(N2CCC3(CC(Nc4ccc5[nH]c(=O)oc5c4)C3)C2)c2cc(CC(F)(F)F)sc2n1 (single isomer, unassigned) [Compound 386]	–	86.8 nM	> 3.75 µM	1.99 µM	–	–	–
FC(F)(F)Cc1cc2c(N3CCC4(CCC(NCc5ccccc5)CC4)C3)ncnc2s1 (stereo not shown) [Compound 1]	3.7 nM	5 nM	0.17 µM	0.79 µM	–	–	–
O=c1[nH]c2ccc(CNC3CCC4(C3)CN(c3ncnc5sc(CC(F)(F)F)cc35)C4)cc2[nH]1 (stereo not shown) [Compound 14]	5.9 nM	0.8 nM	0.39 µM	2.3 µM	–	–	–
O=c1[nH]c2ccc(CNC3CCC4(C3)CN(c3ncnc5sc(CC(F)(F)F)cc35)C4)cc2o1 (stereo not shown) [Compound 15]	–	2.2 nM	0.25 µM	1.29 µM	–	–	–
O=c1[nH]c2cc(CNC3CCC4(C3)CN(c3ncnc5sc(CC(F)(F)F)cc35)C4)ccc2o1 (stereo not shown) [Compound 16]	–	2 nM	0.03 µM	0.19 µM	–	–	–
FC(F)(F)Cc1cc2c(N3CC4(CCC(NCc5cccc(-c6cc[nH]n6)c5)C4)C3)ncnc2s1 (stereo not shown) [Compound 17]	–	7.2 nM	1.36 µM	3.51 µM	–	–	–
CC(C)N(C)CC1CC2(CCN(c3ncnc4sc(CC(F)(F)F)cc34)C2)C1 (stereo not shown) [Compound 40]	–	90.9 nM	3.13 µM	2.64 µM	–	–	–
CC(NC1CCC2(C1)CN(c1ncnc3sc(CC(F)(F)F)cc13)C2)c1ccccc1 (stereo not shown) [Compound 42]	–	43.8 nM	1.24 µM	0.69 µM	–	–	–
N#CCc1ccc(NC2CC3(CCN(c4ncnc5sc(CC(F)(F)F)cc45)C3)C2)cc1 (stereo not shown) [Compound 44]	–	11.3 nM	2.08 µM	2.61 µM	–	–	–
CC(C)NC1CC2(CCN(c3ncnc4sc(CC(F)(F)F)cc34)C2)C1 (stereo not shown) [Compound 51]	61.3 nM	–	0.81 µM	2.46 µM	–	–	–
COc1nc(N2CCC3(CC(NCc4ccccc4)C3)C2)c2cc(CC(F)(F)F)sc2n1 (stereo not shown) [Compound 59]	–	4.5 nM	0.28 µM	0.85 µM	–	–	–
CNc1nc(N2CCC3(CC(NCc4ccccc4)C3)C2)c2cc(CC(F)(F)F)sc2n1 (stereo not shown) [Compound 61]	–	2.4 nM	0.1 µM	0.29 µM	–	–	–
N#CCc1ccc(NC2CC3(CCN(c4ncnc5sc(CC(F)(F)F)cc45)C3)C2)c(F)c1 (stereo not shown) [Compound 63]	–	44.3 nM	1.01 µM	1.13 µM	–	–	–
Cc1nc(N2CC3(CCC(NCc4ccc5[nH]c(=O)[nH]c5c4)C3)C2)c2cc(CC(F)(F)F)sc2n1 (stereo not shown) [Compound 119]	–	47.9 nM	2.15 µM	2.28 µM	–	–	–
CNc1nc(N2CC3(CCC(NCc4ccc5[nH]c(=O)[nH]c5c4)C3)C2)c2cc(CC(F)(F)F)sc2n1 (stereo not shown) [Compound 120]	–	52.4 nM	2.13 µM	2.9 µM	–	–	–
N#CCc1ccc(NC2CCC3(CCN(c4ncnc5sc(CC(F)(F)F)cc45)C3)C2)cc1 (stereo not shown) [Compound 143]	–	32.2 nM	1.94 µM	1.68 µM	–	–	–
O=c1[nH]c2cc(NC3CCC4(C3)CN(c3ncnc5sc(CC(F)(F)F)cc35)C4)ccc2o1 (stereo not shown) [Compound 285]	–	16.2 nM	2.65 µM	> 3.75 µM	–	–	–
FC(F)(F)Cc1cc2c(N3CC4(CCC(Nc5ccc6cc(C(F)(F)F)[nH]c6c5)C4)C3)ncnc2s1 (stereo not shown) [Compound 288]	–	135 nM	> 3.75 µM	> 3.75 µM	–	–	–
FC(F)(F)Cc1cc2c(N3CC4(CC(NCc5ccccc5)C4)C3)ncnc2s1 [Compound 428]	23.8 nM	–	0.55 µM	1.84 µM	–	–	–

Source: patent US11396517B1, “Exo-aza spiro inhibitors of menin-MLL interaction” (Janssen Pharmaceutica NV, priority 2017, dated 2022)
